Where two headings read alike, the source gives them in different places.
Tests used:
PfHsp70-1 [1] = target: T1, PfHsp70-1 (Plasmodium falciparum, UniProt Q8IB24); assay: Basal ATPase activity, colourimetric Pi release; format: biochemical
Description: (§1) The basal ATPase activities of the parasite Hsp70s was assessed by a colourimetric-based method, as previously described. Briefly, 0.4 µM of recombinant proteins (PfHsp70-1/PfHsp70-z) was incubated in buffer HKMD (10 mM HEPES-KOH pH 7.5, 100 mM KCl, 2 mM MgCl2, 0.5 mM DTT) at 37 °C. […] The released inorganic phosphate was detected by adding 1.25% ammonium molybdate and 9% ascorbic acid and monitored using a M3 SpectraMax (Molecular Devices, Sunnyvale, CA, USA) spectrophotometer at 660 nm. To determine the effect of EGCG on the ATPase activity of parasite Hsp70s, the assay was repeated in the presence of varying amounts (0–5 µM) of EGCG.

PfHsp70-z [2] = target: T2, PfHsp70-z (Plasmodium falciparum, UniProt Q8IC01); assay: Basal ATPase activity, colourimetric Pi release; format: biochemical
T2 sequence (Q8IC01 entry or part of it): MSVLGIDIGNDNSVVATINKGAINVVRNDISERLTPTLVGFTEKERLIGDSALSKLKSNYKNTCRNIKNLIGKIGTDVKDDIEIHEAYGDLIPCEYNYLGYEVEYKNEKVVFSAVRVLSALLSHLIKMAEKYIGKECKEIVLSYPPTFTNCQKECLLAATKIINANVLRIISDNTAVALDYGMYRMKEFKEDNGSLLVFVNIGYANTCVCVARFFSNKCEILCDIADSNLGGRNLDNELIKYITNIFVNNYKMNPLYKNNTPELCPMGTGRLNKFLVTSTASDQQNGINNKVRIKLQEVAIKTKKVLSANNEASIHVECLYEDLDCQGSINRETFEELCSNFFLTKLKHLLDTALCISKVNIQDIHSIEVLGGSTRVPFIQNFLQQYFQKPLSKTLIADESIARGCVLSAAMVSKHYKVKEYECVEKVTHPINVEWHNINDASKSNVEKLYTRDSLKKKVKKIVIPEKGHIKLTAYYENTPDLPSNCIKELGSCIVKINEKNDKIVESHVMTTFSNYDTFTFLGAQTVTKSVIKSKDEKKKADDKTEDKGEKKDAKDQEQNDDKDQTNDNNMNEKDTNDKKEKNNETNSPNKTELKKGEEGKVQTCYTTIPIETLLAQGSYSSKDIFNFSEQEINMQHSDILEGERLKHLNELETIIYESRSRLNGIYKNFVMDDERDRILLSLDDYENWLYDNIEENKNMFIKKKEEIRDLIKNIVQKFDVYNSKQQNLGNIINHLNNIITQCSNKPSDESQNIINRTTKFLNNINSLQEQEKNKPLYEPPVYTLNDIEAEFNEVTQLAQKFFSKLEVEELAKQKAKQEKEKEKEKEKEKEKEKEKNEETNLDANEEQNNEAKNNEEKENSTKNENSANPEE
Description: as §1

PfHsp70-1 [3] = target: T1, PfHsp70-1; assay: SPR binding affinity to immobilised PfHsp70-1; conditions: EGCG vs ATP binding to PfHsp70-1
Description: (§2) The binding affinity of EGCG for the two P. falciparum Hsp70s was determined using a Bio-Rad ProteOn XPR36 system (Hercules, CA, USA), as previously described. Briefly, PfHsp70-1, PfHsp70-1NBD, and PfHsp70-z (as ligands) were separately immobilized onto an HTE chip at concentrations of 0.5 μg/mL and 1 μg/mL, respectively, in order to validate the data. […] In order to determine the association of EGCG with the respective ligand, the EGCG stock solution was prepared in deionised water. Aliquots of EGCG were prepared at final concentrations of 0, 125, 250, 500, 1000, and 2000 nM and injected at 100 μL/min into each horizontal channel. Association was allowed for 2 min and dissociation was monitored for 8 min. Data collected was double referenced using a buffer blank (buffer without EGCG) and a channel in which protein was excluded. Steady-state equilibrium constant data were processed and analysed using BioRad ProteOn Manager Version 3.1.0.6 (Hercules, CA, USA) and GE Healthcare Biosciences BIA evaluation Version 4.1.1 software (Uppsala, Sweden).

P. falciparum 3D7 = assay: Antiplasmodial pLDH growth inhibition assay; format: cell-based; conditions: Plasmodium falciparum
Description: P. falciparum 3D7 parasites were grown and maintained in continuous culture, as previously described, with minor modifications. The growth of P. falciparum 3D7-infected erythrocytes subjected to treatment with varying amounts (0, 0.156, 0.3125, 0.625, 1.25, 2.5, and 5 μM) of EGCG was monitored using the P. falciparum lactate dehydrogenase (pLDH) method, as previously described. As a control, Chloroquine, a known antimalarial drug, was used as a positive control in the assay. Serially-diluted EGCG was added to each culture batch. Uninfected erythrocytes that were similarly treated with EGCG were included to cater for possible lysis of erythrocytes exposed to EGCG. A blank consisting of media and EGCG was also set up. P. falciparum 3D7-infected erythrocytes that were not exposed to EGCG treatment were used as the viability control, representing ‘100% growth’. Analysis of the growth inhibition assay data was carried out using GraphPad Prism 6 (San Diego, CA, USA). The assay was repeated three times.

PfHsp70-1 [4] = target: T1, PfHsp70-1; assay: Tryptophan/tyrosine fluorescence, tertiary conformation; conditions: EGCG 0–5 μM
Description: (§3) We further exposed the two proteins to varying amounts (0–5 µM) of EGCG and monitored he perturbation of the tertiary structural conformations of the proteins using both tyrosine and tryptophan fluorescence, as previously described. The respective recombinant protein (PfHsp70-1 of PfHsp70-z) at a final concentration of 0.45 μg/mL was incubated in assay buffer A (25 mM HEPES-KOH pH 7.5, 100 mM KCl, 10 mM MgOAc) at 20 °C either in the absence or presence of variable EGCG levels (0–5 μM). […] Tryptophan fluorescence spectra were recorded between 300 nm and 400 nm after initial excitation at 295 nm using a JASCO FP-6300 spectrofluorometer (Dunmow, UK). The combined fluorescence of tyrosine and tryptophan was monitored after initial excitation at 285 nm. Subsequently, fluorescence was monitored at wavelengths between 300 nm and 400 nm using a JASCO FP-6300 spectrofluorometer. The resultant spectra were averaged for least 15 scans and processed after subtraction of the baseline scan (buffer in which protein was excluded). A control consisting of a buffer containing EGCG, but lacking protein was used to account for baseline fluorescence.

PfHsp70-z [5] = target: T2, PfHsp70-z; assay: as above; conditions: EGCG 0–5 μM
Description: as §3

PfHsp70-z [6] = target: T2, PfHsp70-z; assay: SPR binding affinity to immobilised PfHsp70-z; conditions: EGCG vs ATP binding to PfHsp70-z
Description: as §2

PfHsp70-1 [7] = target: T1, PfHsp70-1; assay: Suppression of heat-induced aggregation of MDH (chaperone function); format: biochemical; conditions: 48 °C; for effect on chaperone activity (MDH aggregation): 5 mM ADP/ATP
Description: (§4) The chaperone function of parasite Hsp70s was investigated by monitoring heat-induced aggregation of a model protein, malate dehydrogenase (MDH) from porcine heart (Sigma-Aldrich), as previously described, with minor modifications. Before conducting the assays, we first established that both purified preparations of PfHsp70-1 and PfHsp70-z were heat-stable at 48 °C. After this, we then investigated the effects of the chaperones (PfHsp70-1/PfHsp70-z) on the heat-induced aggregation of MDH. To determine the effects of EGCG on the chaperone function of the two proteins, the assay was repeated in the presence of 2.5 µM of EGCG. EGCG was used at this concentration (2.5 µM) because this was the lowest concentration at which it inhibited the function of the chaperones. […] For statistical analysis, a one-way ANOVA test was conducted using GraphPad Prism 6 (San Diego, CA, USA).

PfHsp70-z [8] = target: T2, PfHsp70-z; assay: as above; format: biochemical; conditions: 48 °C; for effect on chaperone activity (MDH aggregation): 5 mM ADP/ATP
Description: as §4

T1 sequence (Q8IB24 entry or part of it): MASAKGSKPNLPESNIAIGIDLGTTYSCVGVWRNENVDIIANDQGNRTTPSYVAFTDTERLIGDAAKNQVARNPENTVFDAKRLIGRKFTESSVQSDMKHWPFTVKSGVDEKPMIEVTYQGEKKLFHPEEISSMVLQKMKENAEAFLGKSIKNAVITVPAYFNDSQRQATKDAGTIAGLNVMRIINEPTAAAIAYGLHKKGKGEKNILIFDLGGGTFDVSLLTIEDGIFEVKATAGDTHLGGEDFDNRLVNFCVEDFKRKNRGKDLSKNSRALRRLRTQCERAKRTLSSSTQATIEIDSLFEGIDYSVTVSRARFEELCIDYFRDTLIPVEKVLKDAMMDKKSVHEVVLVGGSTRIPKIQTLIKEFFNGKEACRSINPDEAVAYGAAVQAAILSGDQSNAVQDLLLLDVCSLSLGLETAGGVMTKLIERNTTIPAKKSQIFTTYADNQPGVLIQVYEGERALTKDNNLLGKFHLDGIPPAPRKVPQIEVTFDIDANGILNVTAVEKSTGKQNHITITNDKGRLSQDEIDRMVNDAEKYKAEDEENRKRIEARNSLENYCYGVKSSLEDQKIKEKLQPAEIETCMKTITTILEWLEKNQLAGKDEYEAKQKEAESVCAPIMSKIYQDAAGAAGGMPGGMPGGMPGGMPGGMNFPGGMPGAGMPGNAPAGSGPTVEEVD

With O=C(O[C@@H]1Cc2c(O)cc(O)cc2O[C@@H]1c1cc(O)c(O)c(O)c1)c1cc(O)c(O)c(O)c1 [EGCG, (−)-Epigallocatechin-3-gallate] the Ki (PfHsp70-1 [1]) was 1720 nM, the Vmax (PfHsp70-1 [1]; EGCG 0.156 μM) was 28.22 (±1.5) nmol/min/mg and the Vmax (PfHsp70-1 [1]; EGCG 0.3125 μM) was 29.03 (±0.7) nmol/min/mg. The Vmax (PfHsp70-1 [1]; EGCG 0.625 μM) was 28.40 (±0.95) nmol/min/mg, the Vmax (PfHsp70-1 [1]; EGCG 1.25 μM) was 27.47 (±2.01) nmol/min/mg and the Vmax (PfHsp70-1 [1]; EGCG 2.5 μM) was 29.04 (±0.6) nmol/min/mg. For the same compound, the Vmax (PfHsp70-1 [1]; EGCG 5.0 μM) was 30.06 (±0.5) nmol/min/mg, the Ki (PfHsp70-z [2]) was 2340 nM and the Vmax (PfHsp70-z [2]; EGCG 0.156 μM) was 20.58 (±0.5) nmol/min/mg. For the same compound, the Vmax (PfHsp70-z [2]; EGCG 0.3125 μM) was 18.46 (±0.3) nmol/min/mg, the Vmax (PfHsp70-z [2]; EGCG 0.625 μM) was 19.66 (±0.5) nmol/min/mg and the Vmax (PfHsp70-z [2]; EGCG 1.25 μM) was 21.26 (±0.9) nmol/min/mg. For the same compound, the Vmax (PfHsp70-z [2]; EGCG 2.5 μM) was 18.88 (±0.6) nmol/min/mg, the Vmax (PfHsp70-z [2]; EGCG 5.0 μM) was 17.57 (±0.3) nmol/min/mg and the “fold higher affinity than ATP” value (PfHsp70-1 [3]) was “approximately 10 fold”. For the same compound, the IC50 (P. falciparum 3D7; 3D7, blood stages, pLDH, read-out: IC50 parasite growth) was 2900 nM, the “shift of peak wavelength, tryptophan and tyrosine fluorescence” value (PfHsp70-1 [4]) was “red shift” and the “shift of peak wavelength, tryptophan and tyrosine fluorescence” value (PfHsp70-z [5]) was “red shift”. The “fold higher affinity than ATP” value (PfHsp70-z [6]) was “approximately 10 fold”, the “effect on capability to suppress heat-induced aggregation of MDH” value (PfHsp70-1 [7]; 2.5 µM EGCG) was “abrogated” and the “lowest concentration at which it inhibited the function of the chaperones” value (PfHsp70-1 [7]; MDH aggregation) was 2.5 µM. The “effect on capability to suppress heat-induced aggregation of MDH” value (PfHsp70-z [8]; 2.5 µM EGCG) was “abrogated” and the “lowest concentration at which it inhibited the function of the chaperones” value (PfHsp70-z [8]; MDH aggregation) was 2.5 µM.
For Nc1ncnc2c1ncn2[C@@H]1O[C@H](COP(=O)(O)OP(=O)(O)O)[C@@H](O)[C@H]1O [ADP], the “effect on chaperone activity (MDH aggregation)” value (“effect on chaperone activity” below) (PfHsp70-1 [7]) was “did not alter the chaperone activity” and the “effect on chaperone activity” value (PfHsp70-z [8]) was “did not alter the chaperone activity”.
CCN(CC)CCCC(C)Nc1ccnc2cc(Cl)ccc12 (stereo not shown) [chloroquine] showed an IC50 (P. falciparum 3D7; 3D7, read-out: IC50 parasite growth) of 8.5 nM.
Nc1ncnc2c1ncn2[C@@H]1O[C@H](COP(=O)(O)OP(=O)(O)OP(=O)(O)O)[C@@H](O)[C@H]1O [ATP] was tested, and the “effect on chaperone activity” value (PfHsp70-1 [7]) was “did inhibit the activity” and the “effect on chaperone activity” value (PfHsp70-z [8]) was “not affecting the activity”.
